Results on 18 compounds are retold here after ChEMBL document CHEMBL1140355, “New HIV-1 replication inhibitors of the styryquinoline class bearing aroyl/acyl groups at the C-7 position: synthesis and biological activity” (Bioorg Med Chem Lett, 2005).

Data set [1] concerns Human immunodeficiency virus 1. As to the kind of experiment: Antiviral activity against human immunodeficiency virus type 1 by using MAGI assay. The data set is classed as functional, organism-based. As to conditions: Human immunodeficiency virus 1, MAGI.
Data set [2] in a line: Toxicity towards CEM cells determined by standard MTT assay, expressed as concentration required for the survival of 50% cells. Type of data set: cell-based. As to conditions: human, CEM cells (CCRF-CEM cell line); read-out: TC50 (the source's name). Background: Formazan colour is commonly taken as a measure of viable cells.
Data set [3] deals with Human immunodeficiency virus 1. As to the kind of experiment: Antiviral activity against human immunodeficiency virus type 1 by using MAGI assay; NR = not reached. Type of data set: functional, organism-based.

On to `O=C(c1ccc(O)cc1)c1ccc2ccc(/C=C/c3ccc(O)c(O)c3)nc2c1O`, for which, in data set [1], the IC50 (commonly the concentration that inhibits the measured activity by half) was determined as 6 µM. In data set [2], the CC50 was 87 µM.

In turn, `O=C(O)c1cccc(C(=O)c2ccc3ccc(/C=C/c4ccc(O)c(O)c4)nc3c2O)c1` yielded an IC50 in data set [1] of 63 µM. For the same compound, the CC50 in data set [2] was > 100 µM. Taken in the same sequence, the figures for `O=C(CCc1ccccc1)c1ccc2ccc(/C=C/c3ccc(O)c(O)c3)nc2c1O` were 2 µM and 7 µM. Taken in the same sequence, the figures for `O=C(c1ccccc1[N+](=O)[O-])c1ccc2ccc(/C=C/c3ccc(O)c(O)c3)nc2c1O` were 4 µM and 70 µM. As to `O=C(O)c1ccc(C(=O)c2ccc3ccc(/C=C/c4ccc(O)c(O)c4)nc3c2O)cc1`, the IC50 in data set [1] was 40 µM. Also, the CC50 in data set [2] is 80 µM. The like results for `O=C(O)c1ccccc1C(=O)c1ccc2ccc(/C=C/c3ccc(O)c(O)c3)nc2c1O` were, in that order, 35 µM and > 100 µM. Turning to `O=C(c1ccccn1)c1ccc2ccc(/C=C/c3ccc(O)c(O)c3)nc2c1O`, in data set [3], the IC50 result is “Not reached”. For the same compound, the CC50 in data set [2] stood at 15 µM. Take `Cc1cc(C(=O)c2ccc3ccc(/C=C/c4ccc(O)c(O)c4)nc3c2O)ccc1[N+](=O)[O-]`: in data set [1], the IC50 is 60 µM. Also, the CC50 in data set [2] was found to be 90 µM. `O=C(c1ccccc1)c1ccc2ccc(/C=C/c3ccc(O)c(O)c3)nc2c1O`: the IC50 entry in data set [3] is given as “Not reached”. Besides, in data set [2], the CC50 was found to be 3 µM. For `O=C(c1ccc(F)c(F)c1)c1ccc2ccc(/C=C/c3ccc(O)c(O)c3)nc2c1O`, the IC50 in data set [1] stood at 4 µM. Also, the CC50 in data set [2] came to 63 µM. The like results for `O=C(c1ccc([N+](=O)[O-])cc1)c1ccc2ccc(/C=C/c3ccc(O)c(O)c3)nc2c1O` were, in that order, 2 µM and 60 µM. As for `O=C(c1ccc2ccc(/C=C/c3ccc(O)c(O)c3)nc2c1O)c1cccc2ccccc12`, the IC50 result in data set [3] was “Not reached”. Also, the CC50 in data set [2] was found to be 1 µM.

The compound `O=C(c1cccnc1)c1ccc2ccc(/C=C/c3ccc(O)c(O)c3)nc2c1O` came in with an IC50 in data set [1] of 2 µM. Besides, the CC50 in data set [2] was > 100 µM. Take `O=C(c1ccccc1O)c1ccc2ccc(/C=C/c3ccc(O)c(O)c3)nc2c1O`: in data set [3], the IC50 entry is reported as “Not reached”. Besides, in data set [2], the CC50 was 1 µM. In data set [1], `O=C(c1cccc([N+](=O)[O-])c1)c1ccc2ccc(/C=C/c3ccc(O)c(O)c3)nc2c1O` had an IC50 of 0.5 µM. The CC50 in data set [2] turned out to be 1.5 µM. As for `O=C(O)c1ccc2ccc(/C=C/c3ccc(O)c(O)c3)nc2c1O`, the CC50 in data set [2] was > 100 µM. In data set [1], `CCCCCCCCC(=O)c1ccc2ccc(/C=C/c3ccc(O)c(O)c3)nc2c1O` displayed an IC50 of 5 µM. Also, the CC50 in data set [2] was found to be 10 µM. As to `O=C(c1ccncc1)c1ccc2ccc(/C=C/c3ccc(O)c(O)c3)nc2c1O`, the IC50 result in data set [3] is “Not reached”. The CC50 in data set [2] turned out to be 4 µM.
